Measurements: patent US11970600B2, “Di-cumyl peroxide crosslinking of UHMWPE” (priority 2021, dated 2024)
Where two headings read alike, the source gives them in different places.

Columns and labels:
[1] = parameters: species or system humans; conditions: for ALfemale (allowable limit): adult females, 58 kg body weight; for ALmale (allowable limit): adult males, 70 kg body weight
Experimental: Toxicological risk assessment of five previously characterized byproducts, per Sayoun, J; Crepet A; Gouanve F; Keromnes L; Espuche E. 2017. “Diffusion mechanism of byproducts resulting from the peroxide crosslinking of polyethylene.” J. Appl. Polym. Sci. 44525. doi: 10.1002/APP.44525, was carried out following ISO 10993-17:2002. Quantification was based on the maximum amount of chemical exposures from the anticipated maximum number of implants a patient may receive (in this case, 4 implants). An exhaustive literature search for toxicity data was conducted specific to each chemical of interest. This was accomplished via ToxPlanet (a federated search engine that extracts the content from 500+ websites). Biocompatibility endpoints were determined based on ISO 10993-1:2018 and recent United States Food and Drug Administration (US Food and Drug Administration 2016a. “Use of International Standard ISO-10993, ‘Biological evaluation of medical devices—Part 1: Evaluation and testing within a risk management process’: Guidance for Industry and Food and Drug Administration Staff.” Center for Devices and Radiological Health (CDRH), 68p). These endpoints include chronic toxicity, reproductive and developmental toxicity, genotoxicity, carcinogenicity, and sensitization.
The in silico methods utilized an expert-rule-based program (Toxtree version 3.1.0; Ideaconsult Ltd., 2018) and the statistics-based program VEGA version 1.2.8 and Benfenati, E; Manganaro, A; Gini, G. 2013. “VEGA-QSAR: AI inside a platform for predictive toxicology.” In CEUR Workshop Proceedings, Volume 1107: Proceedings of The Second Workshop on Popularize Artificial Intelligence, (PAI 2013), Turin, Italy), consistent with the International Council for Harmonisation of Technical Requirements for Pharmaceuticals for Human Use (ICH) and US FDA guidelines for the assessment of DNA reactive impurities in pharmaceuticals (M7 guidelines; International Council for Harmonisation of Technical Requirements for Pharmaceuticals for Human Use (ICH). 2017a. “ICH Harmonised Guideline: Assessment and Control of DNA Reactive (Mutagenic) Impurities in Pharmaceuticals to Limit Potential Carcinogenic Risk M7(R1) (Current Step 4 Version); US Food and Drug Administration (US FDA 2018. “Guidance for Industry: M7(R1) Assessment and Control of DNA Reactive (Mutagenic) Impurities in Pharmaceuticals to Limit Potential Carcinogenic Risk.” Center for Drug Evaluation and Research (CDER), Center for Biologics Evaluation and Research (CBER)).
The allowable limit (AL) was calculated using the no-observed-adverse-effect level (NOAEL) limits ascertained from the literature search and in silico methods described above. The NOAELs were then adjusted by the average body weight (BW) for adult males (70 kg) and adult females (58 kg). Following the recommendations of ISO 10993-17 and ICH Q3C(R7) (International Organization for Standardization (ISO). 2002. “ISO 10993-17: Biological Evaluation of Medical Devices—Part 17: Establishment of Allowable Limits for Leachable Substances.” ISO 10993-17: 2002; International Council for Harmonisation of Technical Requirements for Pharmaceuticals for Human Use (ICH). 2018. “ICH Harmonised Guideline: Impurities: Guideline for Residual Solvents Q3C(R7) (Current Step 4 Version).”), the values were then adjusted by a series of uncertainty factors (UFs). UF1=10 to account for interindividual variation; UF2=5 for extrapolation of effects from rats to humans; UF3=10 to account for extrapolation from an oral exposure study to systemic exposure risk associated with an implanted device; UF4=5 to account for extrapolation of results from a 90-day toxicity study in rodents to lifetime exposure associated with a permanent implant; and UF5=10 to account for extrapolation of a lowest-observed-adverse-effect level (LOAEL) to a NOAEL, if needed.

[2] = cited from earlier work

C=C(CC(C)(C)c1ccccc1)c1ccccc1 [2,4-Diphenyl-4-methyl-1-pentene]
ALfemale (allowable limit) [1]: 232 µg/day
ALmale (allowable limit) [1]: 280 µg/day

CC(=O)c1ccccc1 [Acetophenone]
ALfemale (allowable limit) [1]: 9,810 μg/day
ALmale (allowable limit) [1]: 11,800 μg/day

CC(C)(O)c1ccccc1 [Cumyl alcohol]
ALfemale (allowable limit) [1]: 1,800 μg/day
ALmale (allowable limit) [1]: 1,800 μg/day

CC(C)(OOC(C)(C)c1ccccc1)c1ccccc1 [Dicumyl peroxide]
ALfemale (allowable limit) [1]: 1,860 μg/day
ALmale (allowable limit) [1]: 2,240 μg/day
half-life temperature ([2]; for 1 minute): 120 °C
half-life temperature ([2]; for 1 hour): 80 °C
half-life temperature ([2]; for 10 hours): 61 °C
